In article PMC8041276 (ACS Chemical Neuroscience, 2021):

Key:
CYP3A4 = molecular target: T1, CYP3A4 (Homo sapiens, UniProt P08684); experiment: CYP3A4 P450-Glo luminescent inhibition assay; format: in vitro ADME; conditions: 0.01–25 μM
T1 construct: purchased Promega (Madison, WI, USA)
Source text: The luminescent CYP3A4 P450-Glo and CYP2D6 P450-Glo assays and protocols were provided by Promega (Madison, WI, USA). The P450-Glo systems based on the conversion proluciferins, derivatives of beetle luciferin [(4S)-4,5-dihydro-2-(6′-hydroxy-2′-benzothiazolyl)-4-thiazolecarboxylic acid] into D-luciferin were catalyzed by respective CYP isoform. D-Luciferin is formed and detected in a second reaction with the luciferin detection reagent (LDR). The amount of light produced in the second reaction is proportional to CYP activity.
The stock solutions (10 mM) of the references ketoconazole (KE), quinidine (QD), and examined compounds were performed in DMSO. The 4× concentrated dilutions were prepared before the assays. […]
The CYPs, proluciferin, and examined compounds (25 μL/well) were preincubated first for 5 min, and next the NADPH regeneration system was added (25 μL) to start the reaction. […] The control reactions for measuring the 100% of CYPs activity and minus-CYP negative control reactions for measure background luminescence were also prepared. […] Finally, LDR was added (50 μL/well), and after 20 min of incubation in room temperature the luminescence signal was measured with a microplate reader (EnSpire, PerkinElmer) in luminescence mode. […] The IC50 values and were calculated using GraphPad Prism 5 software.

[1] = test system: scopolamine-induced cognitive impairment; experiment: Novel object recognition (NOR) test under scopolamine-induced memory decline; format: in vivo, male Sprague-Dawley rats; conditions: rats, scopolamine 1.25 mg/kg ip
Method: The experiments were conducted in accordance with the NIH Guide for the Care and Use of Laboratory Animals and were approved by the II Local Ethics Committee for Animal Experiments, Maj Institute of Pharmacology. Male […] Sprague-Dawley rats (Charles River, Germany) weighing ∼250 g at the arrival were housed in the standard laboratory cages, under standard colony A/C controlled conditions: room temperature 21 ± 2 °C, humidity (40–50%), 12 h light/dark cycle (lights on, 06:00) with ad libitum access to food (unless stated otherwise) and water. Rats were allowed to acclimatize for at least 7 days before the start of the experimental procedure. During this week animals were handled at least 3 times. Behavioral testing was carried out during the light phase of the light/dark cycle. […]
The procedure consisted of habituation to the arena (without any objects) for 5 min, 24 h before the test, and test session comprised two trials separated by an inter trial interval (ITI). […] Exploration time of the objects and the distance traveled were measured using the Any-maze video tracking system. On the basis of exploration time (E) of two objects during T2, discrimination index (DI) was calculated according to the formula: DI = (EB – EA)/(EA + […]).
Data were analyzed using one-way ANOVA with treatment as between-subject factor. […]

T1 sequence (P08684 whole entry): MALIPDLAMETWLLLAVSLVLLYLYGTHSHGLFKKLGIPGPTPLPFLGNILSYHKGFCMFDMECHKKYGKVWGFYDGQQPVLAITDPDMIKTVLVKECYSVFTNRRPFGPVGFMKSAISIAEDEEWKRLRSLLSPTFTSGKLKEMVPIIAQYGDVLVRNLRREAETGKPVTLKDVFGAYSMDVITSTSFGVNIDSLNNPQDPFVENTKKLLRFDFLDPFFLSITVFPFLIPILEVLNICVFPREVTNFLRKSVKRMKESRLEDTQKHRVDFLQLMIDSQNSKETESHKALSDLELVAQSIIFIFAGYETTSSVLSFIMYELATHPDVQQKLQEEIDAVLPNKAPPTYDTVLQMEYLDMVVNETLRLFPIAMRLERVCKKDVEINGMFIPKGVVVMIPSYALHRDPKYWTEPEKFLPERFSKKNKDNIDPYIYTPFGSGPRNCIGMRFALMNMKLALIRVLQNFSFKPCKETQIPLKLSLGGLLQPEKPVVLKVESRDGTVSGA

O=C(N[C@@H]1CCNC1)c1ccn(S(=O)(=O)c2cccc(Cl)c2)c1-c1ccc(F)cc1 [Compound 27, (R)-2-(4-Fluorophenyl)-1-[(3-chlorophenyl)sulfonyl]-N-(pyrrolidin-3-yl)-1H-pyrrole-3-carboxamide]
IC50 (CYP3A4): 69 nM
effect on scopolamine-induced cognitive deficits (discrimination index) ([1]; 3 mg/kg p.o.): not 3 mg/kg, prevented scopolamine-induced cognitive deficits
effect on scopolamine-induced cognitive deficits (discrimination index) ([1]; 6 mg/kg p.o.): prevented scopolamine-induced cognitive deficits
